Experimental findings from ChEMBL document CHEMBL4251672, “Penicilindoles A-C, Cytotoxic Indole Diterpenes from the Mangrove-Derived Fungus Eupenicillium sp. HJ002” (J Nat Prod, 2018) are described below.

One experiment deals with A549. The experiment can be described thus: Cytotoxicity against human A549 cells assessed as decrease in cell viability by MTT assay. It is filed as functional, cell-based.
The next experiment deals with Bacillus cereus. In words: Antibacterial activity against Bacillus cereus ATCC 11778 at 20 uM. It is filed as functional, organism-based.
For another experiment, the system named is Vibrio alginolyticus. In words: Antibacterial activity against Vibrio alginolyticus ATCC 17749 at 20 uM. It is filed as functional, organism-based.
In another experiment the test system is HeLa. In words: Cytotoxicity against human HeLa cells assessed as decrease in cell viability by MTT assay. It is filed as functional, cell-based.
The next experiment has as its system Vibrio parahaemolyticus. The experiment can be described thus: Antibacterial activity against Vibrio parahaemolyticus ATCC 17802 at 20 uM. It is filed as functional, organism-based.
In a further experiment the test system is Escherichia coli. In words: Antibacterial activity against Escherichia coli ATCC 25922 at 20 uM. It is filed as functional, organism-based.
The test system of experiment [1] is Staphylococcus aureus. In words: Antibacterial activity against Staphylococcus aureus ATCC 25923 at 20 uM. It is filed as functional, organism-based.
The next experiment deals with HepG2. In words: Cytotoxicity against human HepG2 cells assessed as decrease in cell viability by MTT assay. It is filed as functional, cell-based.
In experiment [2] the test system is Staphylococcus aureus. In words: Antibacterial activity against methicillin-resistant Staphylococcus aureus ATCC 33591 at 20 uM. Format: functional, organism-based.

Structures are written as SMILES. Structures can show the parent of a compound that is named as a salt. The source made the active and inactive calls. The calls are words filed in the database; no cut-off is given here.

Consider `CC(C)=CCC[C@@]12C(=O)CC[C@@H](C)[C@]1(C)CC[C@@](C)(O)[C@H]2Cc1c[nH]c2ccccc12`, for which the IC50 with A549 worked out at 18.6 µM; in the experiment with HeLa, 20 µM; in the experiment on HepG2, 47.2 µM. The result with Bacillus cereus, in the experiment with Vibrio alginolyticus, with Vibrio parahaemolyticus, in the experiment on Escherichia coli, with Staphylococcus aureus [1] and with Staphylococcus aureus [2] was inactive.

With `CC(C)=CCC[C@@]12[C@@H](O)CC[C@@H](C)[C@]1(C)CC[C@@](C)(O)[C@H]2Cc1c[nH]c2ccccc12`, the concentration for half-maximal inhibition (IC50) in the experiment on A549 stood at 5.5 µM; in the experiment with HeLa it was 23.3 µM; in the experiment with HepG2, 1.5 µM. For the same compound, the outcome in the experiment with Bacillus cereus, with Vibrio alginolyticus, in the experiment on Vibrio parahaemolyticus, in the experiment with Escherichia coli, with Staphylococcus aureus [1] and with Staphylococcus aureus [2] was inactive.

`O=c1[nH]cc(F)c(=O)[nH]1` [FLUOROURACIL]: the figures for the half-maximal inhibitory concentration (IC50) in the experiment with A549 and with HeLa were 36.8 µM and 28 µM, respectively.

Consider `COc1cccc2c1C(=O)c1c(O)c3c(c(O)c1C2=O)C[C@@](O)(C(=O)CO)C[C@@H]3O[C@H]1C[C@H](N)[C@H](O)[C@H](C)O1` [DOXORUBICIN HYDROCHLORIDE], for which the IC50 in the experiment on HeLa stood at 0.1 µM.
